Reference: patent US20160317391A1, “MEDIA MILLING PROCESS FOR THE MANUFACTURE OF ACTIVE PHARMACEUTICAL INGREDIENTS IN PROPELLANTS” (MERCK SHARP & DOHME CORP., priority 2013, published 2016)
Values joined by “and” are separate entries in the source; they are usually repeats but may differ in a detail not shown here. Equal entries are not always repeated. Each block holds one molecule with its values, some of them ahead of it.

Key:
[1] = Particle size distribution (X50, X90) before and after HFA-LabRAM media milling, […] particle size analyzer; type: physicochemical; details: for X50 after RAM-milling: grades ML001 and SV003; for PSD after HFA Milling X50 / PSD after HFA Milling X90: 80% power; for particle size (X50) prior to HFA-based RAM milling: unmilled
Experimental: In a typical RAM based media milling process (see FIG. 1), API is added to a glass bottle along with Yttria zirconia (YTZ, diameters ranging from about 0.1 to about 2 mm) beads. Preferred bead sizes are from about 0.05 to about 5 mm. Another preferred bead size is from about 0.1 to about 2 mm. Other components that can be added to the API-bead mixture include stabilizers and surfactants that can augment the milling process. The ratio of the beads to that of the formulation components can be varied to suit the needs of particle size requirements. Particularly preferred ratios of beads to formulation components are from 40:1, 20:1, 15:1, 10:1 and 5:1. The bottle is crimp sealed and filled with appropriate amounts of either HFA227 or HFA134a (or a combination of both at varying ratios). The bottle is then loaded onto a RAM device and milled for a specified duration of time and at a specified power. Milling times include between about 5 minutes to about 300 minutes. Preferred milling times are from about 30 minutes to about 200 minutes and 60 minutes to about 120 minutes. Power includes about 10% to about 100% power. Preferred power range is about 40% to about 100%. Further, preferred power range is about 75% to about 100%. In most cases, the process can proceed to completion without stoppage. However, because of the ease and simplicity of the process, the process flow can be readily altered by stopping the media milling at intermittent time points for a known period of time before restarting the process again. This may be performed to cool the contents of the bottle at regular intervals. After completion, the bottle is allowed to revert to room temperature (if needed) to rapidly vent the HFA. After the process is finished the contents of the bottle (API, any excipients and/or additives, and the beads) are then added to a sieve of appropriate mesh size to separate the beads and the API. The milled API is collected and stored at 0% RH (in a nitrogen glove box) for further use.
GP was milled utilizing LabRAM in both HFA134a and HFA227. The milling was accomplished at different parameters of solids ratio, milling duration and power. YTZ beads ([…]) were utilized.
Lactose is an excipient that is FDA approved and is utilized as a carrier in dry powder inhalers. In one variation of the milling study, β-lactose (anhydrous) purchased from sigma-aldrich was subjected to HFA (HFA227) based media milling using LabRAM at a preset power of 80% and for a duration of 70 minutes. The ratio of YTZ beads ([…]) to β-lactose was maintained at 20:1. Particle size (X50) of β-lactose prior to HFA-based RAM milling was 153.6±7.4 μm. Upon subjecting the unmilled lactose to RAM-milling under the aforementioned conditions, the particle size (X50) of β-lactose was 3.47±0.01 μm.

[2] = DSC thermograms of unmilled and HFA-LabRAM milled material (solid state); type: physicochemical; details: milled versus unmilled material
Excerpt: With respect to the examples below, the milled API was subject to DSC and the thermograms compared to that of the neat unmilled API. The data from the thermograms clearly indicate that the RAM based HFA-milled API maintains its crystalline structure (FIG. 2B). It was also confirmed that the RAM milling process minimized the undesirable amorphous material generation during milling.

[3] = HFA227, 60 mins, API:Bead ratio (w/w) 20, in µm (unit assumed)
[4] = HFA227, 86 min, API:Bead ratio (w/w) 20, in µm (unit assumed)
[5] = HFA227, 90 min, 5 min stop @45, 10 min stop, 90% power for additional 3 mins, API:Bead ratio (w/w) 20, in µm (unit assumed)
[6] = HFA227, 90 min, 5 min stop @45, API:Bead ratio (w/w) 10, in µm (unit assumed)
[7] = HFA227, 105 mins, API:Bead ratio (w/w) 20, in µm (unit assumed)
[8] = unmilled GP, in µm (unit assumed)

SMILES: O.OC[C@H]1O[C@@H](O[C@H]2[C@H](O)[C@@H](O)C(O)O[C@@H]2CO)[C@H](O)[C@@H](O)[C@H]1O (some centres unmarked) [Lactose monohydrate]
X50 after RAM-milling ([1]; HFA134a, similar conditions): 1.9 μm
X50 after RAM-milling ([1]; HFA227): less than 3 μm

SMILES: C[N+]1(C)CCC(OC(=O)C(O)(c2ccccc2)C2CCCC2)C1.[Br-] (centres unmarked) [jet milled GP, glycopyrrolate bromide]
time within which X50 / particle size doubles (75% RH and 40° C.): ≤ 6 h
particle size shown at 24 h (visual observation) (75% RH and 40° C., 24 h, visual observation, […]): 10 μm
increase in the size of the API (75% RH and 40° C., within 24 h): 100 fold

SMILES: OC[C@H]1O[C@@H](O[C@H]2[C@H](O)[C@@H](O)[C@H](O)O[C@@H]2CO)[C@H](O)[C@@H](O)[C@H]1O [β-lactose]
solid state after HFA-LabRAM milling (DSC) [2]: crystalline
solid state after HFA-LabRAM milling (DSC) ([2]; listed as lactose): no glass transition
particle size (X50) of the recovered product ([1]; HFA134a, bead to lactose ratio 40:1, 60 minute duration): 2.3 μm
particle size (X50) after RAM-milling ([1]; HFA227, power 80%, 70 minutes, YTZ beads to β-lactose 20:1): 3.47±0.01 μm
particle size (X50) prior to HFA-based RAM milling [1]: 153.6±7.4 μm

More lines, main results first:

solid state after HFA-LabRAM milling (DSC) [2]: no change in the polymorphic state
X50 after LabRAM milling, all cases ([1]; HFA134a and HFA227, different solids ratio, milling duration and power, YTZ beads): less than 3 μm
average X50 after LabRAM milling ([1]; HFA134a, increased solids ratio): 1.5 μm
PSD after HFA Milling X50 [1, 3]: 3.49 ± 0.02
PSD after HFA Milling X90 [1, 3]: 15.93 ± 0.14
PSD after HFA Milling X50 [1, 4]: 1.7
PSD after HFA Milling X90 [1, 4]: 4.53 ± 0.21
PSD after HFA Milling X50 [1, 5]: 1.37 ± 0.13
PSD after HFA Milling X90 [1, 5]: 3.67 ± 0.03
PSD after HFA Milling X50 [1, 6]: 1.7 and 1.53 ± 0.06
PSD after HFA Milling X90 [1, 6]: 3.87 ± 0.12 and 3.67 ± 0.06
PSD after HFA Milling X50 [1, 7]: 2.62 ± .01
PSD after HFA Milling X90 [1, 7]: 9.83 ± 0.01
particle size (X50) prior to HFA-based RAM milling [1]: ca. 51 μm
SMILES: C[N+]1(C)CCC(OC(=O)C(O)(c2ccccc2)C2CCCC2)C1 (centres unmarked) [GP, glycopyrrolate bromide]
PSD before HFA Milling X50 [1, 8]: 52.77 ± 1.55 and 52.77 ± 1.56 and 52.77 ± 1.57 and 52.77 ± 1.54
PSD before HFA Milling X90 [1, 8]: 134.7 ± 9.10 and 134.7 ± 9.11 and 134.7 ± 9.12 and 134.7 ± 9.9

particle size (X50) at start of storage (75% RH and 25° C. study, initial value): 1.54 μm
particle size (X50) after storage (75% RH and 25° C., within a span of 24 h): 1.78 μm
increase in PSD (75% RH and 40° C., within 20 h): 0.5 μm
SMILES: C[N+]1(C)CCC(OC(=O)C(O)(c2ccccc2)C2CCCC2)C1.[Br-] (centres unmarked) [HFA-LabRAM milled GP, glycopyrrolate bromide]
